This passage reports inhibition and IC50 results from ChEMBL document CHEMBL5376027, “Discovery of 5-trifluoromethyl-2-aminopyrimidine derivatives as potent dual inhibitors of FLT3 and CHK1” (RSC Med Chem, 2024).

Data set [1] concerns the target hERG (KCNH2) (Homo sapiens, UniProt Q12809). Kind of data set: Inhibition of hERG expressed in HEK293 cells at 10 uM incubated by patch clamp assay relative to control. It counts as toxicity, cell-based. As to conditions: HEK293 cells that express hERG. (The hERG channel carries a current that helps repolarise heart muscle cells.)
The target of data set [2] is T1, Serine/threonine-protein kinase Chk1 (Homo sapiens, UniProt O14757).
T1 sequence (O14757 whole entry): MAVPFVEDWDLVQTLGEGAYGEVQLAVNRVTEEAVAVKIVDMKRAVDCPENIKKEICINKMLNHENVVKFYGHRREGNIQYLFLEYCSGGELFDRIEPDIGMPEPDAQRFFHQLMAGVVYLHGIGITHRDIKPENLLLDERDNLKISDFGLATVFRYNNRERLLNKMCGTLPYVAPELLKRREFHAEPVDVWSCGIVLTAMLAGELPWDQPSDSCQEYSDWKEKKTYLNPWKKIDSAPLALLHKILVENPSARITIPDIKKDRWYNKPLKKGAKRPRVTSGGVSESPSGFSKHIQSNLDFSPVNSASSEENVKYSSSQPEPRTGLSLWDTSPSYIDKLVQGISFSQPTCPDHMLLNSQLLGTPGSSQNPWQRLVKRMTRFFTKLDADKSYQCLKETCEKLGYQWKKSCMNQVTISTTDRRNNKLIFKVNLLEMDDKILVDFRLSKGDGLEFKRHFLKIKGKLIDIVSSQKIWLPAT
Description: Inhibition of CHK1 (unknown origin) using peptide substrate incubated for 1 hrs in presence of ATP by fluorescence microplate reader analysis

The target in data set [3] is Mast/stem cell growth factor receptor Kit (Homo sapiens, UniProt P10721).
Chain of Mast/stem cell growth factor receptor Kit (P10721 whole entry): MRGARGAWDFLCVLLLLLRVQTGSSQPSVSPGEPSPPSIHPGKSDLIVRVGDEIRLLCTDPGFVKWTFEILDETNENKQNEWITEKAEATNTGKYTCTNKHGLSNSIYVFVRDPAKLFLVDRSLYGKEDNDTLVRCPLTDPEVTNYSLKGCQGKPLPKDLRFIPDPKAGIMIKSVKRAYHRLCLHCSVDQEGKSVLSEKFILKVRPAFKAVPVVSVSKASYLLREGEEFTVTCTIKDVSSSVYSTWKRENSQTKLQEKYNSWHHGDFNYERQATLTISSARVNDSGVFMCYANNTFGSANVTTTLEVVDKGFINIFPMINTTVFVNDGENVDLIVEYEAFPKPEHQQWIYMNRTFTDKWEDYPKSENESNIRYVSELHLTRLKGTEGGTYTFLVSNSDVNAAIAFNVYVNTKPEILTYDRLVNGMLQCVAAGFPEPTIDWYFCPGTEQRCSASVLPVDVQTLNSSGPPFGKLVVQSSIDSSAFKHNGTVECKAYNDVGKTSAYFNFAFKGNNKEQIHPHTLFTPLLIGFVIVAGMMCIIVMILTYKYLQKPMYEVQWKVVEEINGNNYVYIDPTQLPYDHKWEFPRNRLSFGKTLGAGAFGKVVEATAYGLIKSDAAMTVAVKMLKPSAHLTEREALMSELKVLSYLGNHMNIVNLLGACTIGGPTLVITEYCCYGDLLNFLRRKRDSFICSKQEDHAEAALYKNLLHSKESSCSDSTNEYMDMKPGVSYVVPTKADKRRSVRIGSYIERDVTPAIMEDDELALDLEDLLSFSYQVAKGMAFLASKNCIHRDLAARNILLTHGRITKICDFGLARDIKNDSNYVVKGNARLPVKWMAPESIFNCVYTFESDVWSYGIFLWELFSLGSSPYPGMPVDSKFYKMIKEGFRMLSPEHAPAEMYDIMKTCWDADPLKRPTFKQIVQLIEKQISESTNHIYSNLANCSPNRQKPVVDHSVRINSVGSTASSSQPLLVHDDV
Description: Inhibition of c-kit (unknown origin) using peptide substrate incubated for 1 hrs in presence of ATP by fluorescence microplate reader analysis
The target in data set [4] is T2, Interleukin-1 receptor-associated kinase 4 (Homo sapiens, UniProt Q9NWZ3).
T2 sequence (Q9NWZ3 whole entry): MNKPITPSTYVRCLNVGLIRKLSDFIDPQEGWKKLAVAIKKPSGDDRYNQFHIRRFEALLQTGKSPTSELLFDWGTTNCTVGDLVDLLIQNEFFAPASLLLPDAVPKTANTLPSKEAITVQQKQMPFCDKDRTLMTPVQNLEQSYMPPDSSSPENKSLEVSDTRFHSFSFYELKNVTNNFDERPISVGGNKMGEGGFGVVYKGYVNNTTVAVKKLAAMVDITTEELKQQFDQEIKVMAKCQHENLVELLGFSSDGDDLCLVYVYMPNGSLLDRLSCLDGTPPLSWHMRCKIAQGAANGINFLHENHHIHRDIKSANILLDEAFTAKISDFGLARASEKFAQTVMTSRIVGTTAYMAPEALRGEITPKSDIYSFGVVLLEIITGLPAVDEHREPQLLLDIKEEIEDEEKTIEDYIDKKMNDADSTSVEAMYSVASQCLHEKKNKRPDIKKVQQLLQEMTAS
Description: Inhibition of IRAK4 (unknown origin) using peptide substrate incubated for 1 hrs in presence of ATP by fluorescence microplate reader.

Data set [5] concerns the target Ribosomal protein S6 kinase. Description: Inhibition of p70S6K (unknown origin) using peptide substrate incubated for 1 hrs in presence of ATP by fluorescence microplate reader. It counts as protein assay, Homo sapiens.
Data set [6] addresses Cyclin-dependent kinase 2 (Homo sapiens, UniProt P24941). Kind of data set: Inhibition of CDK2 (unknown origin) incubated for 1 hrs by fluorescence microplate reader.
Data set [7] deals with T3, Aurora kinase A (Homo sapiens, UniProt O14965).
T3 sequence (O14965 whole entry): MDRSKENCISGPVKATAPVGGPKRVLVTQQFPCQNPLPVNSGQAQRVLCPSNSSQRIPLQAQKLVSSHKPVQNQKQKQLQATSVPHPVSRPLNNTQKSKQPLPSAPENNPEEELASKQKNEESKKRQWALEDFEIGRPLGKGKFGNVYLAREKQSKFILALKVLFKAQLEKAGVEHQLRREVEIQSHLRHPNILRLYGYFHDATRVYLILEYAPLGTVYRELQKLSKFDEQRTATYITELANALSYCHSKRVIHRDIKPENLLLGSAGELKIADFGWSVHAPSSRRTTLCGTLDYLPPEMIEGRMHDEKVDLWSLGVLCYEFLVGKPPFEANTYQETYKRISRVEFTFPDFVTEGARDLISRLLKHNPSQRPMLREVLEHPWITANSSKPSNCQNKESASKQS
Description: Inhibition of Aurora A (unknown origin) expressed in Escherichia coli using peptide substrate incubated for 1 hrs in presence of ATP by fluorescence microplate reader.

Data set [8] addresses T4, Tyrosine-protein kinase JAK3 (Homo sapiens, UniProt P52333).
T4 sequence (P52333 whole entry): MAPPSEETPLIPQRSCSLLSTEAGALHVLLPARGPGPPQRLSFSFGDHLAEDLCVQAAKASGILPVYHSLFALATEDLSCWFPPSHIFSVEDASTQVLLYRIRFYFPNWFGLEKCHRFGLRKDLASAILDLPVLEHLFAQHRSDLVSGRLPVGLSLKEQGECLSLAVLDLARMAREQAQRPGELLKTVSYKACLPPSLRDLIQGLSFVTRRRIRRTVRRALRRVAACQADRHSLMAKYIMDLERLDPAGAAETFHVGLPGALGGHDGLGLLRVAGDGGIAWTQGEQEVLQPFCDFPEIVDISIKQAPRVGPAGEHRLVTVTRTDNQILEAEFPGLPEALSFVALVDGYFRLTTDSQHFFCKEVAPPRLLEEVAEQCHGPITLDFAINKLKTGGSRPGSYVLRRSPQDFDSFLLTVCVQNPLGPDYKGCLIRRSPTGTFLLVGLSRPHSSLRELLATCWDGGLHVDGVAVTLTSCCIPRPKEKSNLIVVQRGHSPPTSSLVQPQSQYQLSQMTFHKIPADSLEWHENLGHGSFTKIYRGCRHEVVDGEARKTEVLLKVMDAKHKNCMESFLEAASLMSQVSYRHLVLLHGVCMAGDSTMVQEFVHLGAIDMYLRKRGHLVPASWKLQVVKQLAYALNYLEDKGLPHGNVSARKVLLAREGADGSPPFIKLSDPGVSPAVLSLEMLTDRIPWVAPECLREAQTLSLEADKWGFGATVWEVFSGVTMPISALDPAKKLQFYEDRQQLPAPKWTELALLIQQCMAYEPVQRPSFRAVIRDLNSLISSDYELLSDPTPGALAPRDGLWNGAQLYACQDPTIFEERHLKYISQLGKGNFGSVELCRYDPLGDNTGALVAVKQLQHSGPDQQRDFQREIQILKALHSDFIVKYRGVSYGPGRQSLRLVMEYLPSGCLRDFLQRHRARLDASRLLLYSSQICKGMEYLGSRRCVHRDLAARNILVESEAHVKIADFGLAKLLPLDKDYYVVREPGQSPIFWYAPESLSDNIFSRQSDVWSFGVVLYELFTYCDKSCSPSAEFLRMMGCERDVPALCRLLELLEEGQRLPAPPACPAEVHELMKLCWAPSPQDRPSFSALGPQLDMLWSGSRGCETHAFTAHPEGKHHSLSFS
Description: Inhibition of JAK3 (unknown origin) using peptide substrate incubated for 1 hrs in presence of ATP by fluorescence microplate reader.

For data set [9], the target named is Tyrosine-protein kinase BTK (Homo sapiens, UniProt Q06187). Kind of data set: Inhibition of BTK (unknown origin) using peptide substrate incubated for 1 hrs in presence of ATP by fluorescence microplate reader.
Chain of Tyrosine-protein kinase BTK (Q06187 whole entry): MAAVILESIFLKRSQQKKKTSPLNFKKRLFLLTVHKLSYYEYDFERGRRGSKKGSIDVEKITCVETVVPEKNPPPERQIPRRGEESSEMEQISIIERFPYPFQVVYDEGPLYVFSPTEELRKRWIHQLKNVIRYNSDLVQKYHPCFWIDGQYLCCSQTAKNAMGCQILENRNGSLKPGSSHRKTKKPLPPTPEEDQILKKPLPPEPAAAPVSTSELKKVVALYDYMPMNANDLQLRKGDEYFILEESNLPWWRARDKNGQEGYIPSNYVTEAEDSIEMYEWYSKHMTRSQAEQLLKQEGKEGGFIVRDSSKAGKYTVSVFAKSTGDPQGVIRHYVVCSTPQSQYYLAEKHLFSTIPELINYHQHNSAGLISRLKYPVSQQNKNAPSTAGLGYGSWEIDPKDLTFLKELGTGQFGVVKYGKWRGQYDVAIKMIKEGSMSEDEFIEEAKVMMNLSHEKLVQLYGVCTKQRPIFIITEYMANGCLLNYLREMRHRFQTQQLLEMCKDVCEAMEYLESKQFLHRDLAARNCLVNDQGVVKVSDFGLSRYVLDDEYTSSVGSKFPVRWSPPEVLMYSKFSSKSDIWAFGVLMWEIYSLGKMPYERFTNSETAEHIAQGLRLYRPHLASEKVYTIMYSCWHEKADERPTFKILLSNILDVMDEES
In data set [10] the target is Epidermal growth factor receptor (Homo sapiens, UniProt P00533). Kind of data set: Inhibition of EGFR (unknown origin) using peptide substrate incubated for 1 hrs in presence of ATP by fluorescence microplate reader.
Chain of Epidermal growth factor receptor (P00533 whole entry): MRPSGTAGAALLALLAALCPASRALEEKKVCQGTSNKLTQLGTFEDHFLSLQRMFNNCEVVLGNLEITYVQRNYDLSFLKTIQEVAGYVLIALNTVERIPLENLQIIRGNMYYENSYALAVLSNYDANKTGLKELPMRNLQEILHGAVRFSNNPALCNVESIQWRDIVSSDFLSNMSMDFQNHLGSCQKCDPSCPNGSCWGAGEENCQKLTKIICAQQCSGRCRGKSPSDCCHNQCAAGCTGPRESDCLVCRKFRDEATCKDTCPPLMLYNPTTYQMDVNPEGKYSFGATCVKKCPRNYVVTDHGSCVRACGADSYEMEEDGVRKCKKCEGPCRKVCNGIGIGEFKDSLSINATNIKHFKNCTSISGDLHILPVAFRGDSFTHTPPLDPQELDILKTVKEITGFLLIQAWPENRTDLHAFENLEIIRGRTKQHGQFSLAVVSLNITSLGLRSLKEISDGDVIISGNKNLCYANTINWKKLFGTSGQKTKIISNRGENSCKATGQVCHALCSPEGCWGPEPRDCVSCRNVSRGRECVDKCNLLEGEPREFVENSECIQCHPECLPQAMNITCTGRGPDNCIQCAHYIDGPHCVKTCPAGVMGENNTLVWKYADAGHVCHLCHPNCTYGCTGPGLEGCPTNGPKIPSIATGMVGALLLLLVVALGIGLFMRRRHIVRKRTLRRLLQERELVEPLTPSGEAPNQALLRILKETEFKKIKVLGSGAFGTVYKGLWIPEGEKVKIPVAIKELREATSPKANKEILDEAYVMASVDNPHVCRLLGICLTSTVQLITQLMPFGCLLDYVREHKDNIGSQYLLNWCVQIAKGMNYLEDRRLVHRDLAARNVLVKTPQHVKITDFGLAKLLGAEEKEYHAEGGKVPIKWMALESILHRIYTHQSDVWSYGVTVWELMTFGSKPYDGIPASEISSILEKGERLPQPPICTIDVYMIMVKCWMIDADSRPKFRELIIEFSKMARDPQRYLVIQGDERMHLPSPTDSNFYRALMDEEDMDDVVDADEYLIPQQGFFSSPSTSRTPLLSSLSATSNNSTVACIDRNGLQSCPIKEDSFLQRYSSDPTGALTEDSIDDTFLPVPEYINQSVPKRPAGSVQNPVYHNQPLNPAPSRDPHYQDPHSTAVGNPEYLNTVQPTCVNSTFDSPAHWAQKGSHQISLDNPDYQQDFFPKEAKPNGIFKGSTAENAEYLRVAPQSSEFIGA
In data set [11] the target is Serine/threonine-protein kinase pim-1 (Homo sapiens, UniProt P11309). Kind of data set: Inhibition of PIM1 (unknown origin) using peptide substrate incubated for 1 hrs in presence of ATP by fluorescence microplate reader.
Chain of Serine/threonine-protein kinase pim-1 (P11309 whole entry): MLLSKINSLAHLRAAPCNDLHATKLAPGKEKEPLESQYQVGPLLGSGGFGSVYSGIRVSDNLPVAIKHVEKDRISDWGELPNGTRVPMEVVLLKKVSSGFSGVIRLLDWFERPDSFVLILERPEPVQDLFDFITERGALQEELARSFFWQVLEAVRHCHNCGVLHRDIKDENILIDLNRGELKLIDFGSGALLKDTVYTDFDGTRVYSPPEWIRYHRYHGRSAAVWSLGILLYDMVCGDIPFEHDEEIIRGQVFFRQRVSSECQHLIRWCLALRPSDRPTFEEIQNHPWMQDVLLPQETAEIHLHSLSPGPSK
Data set [12] concerns the target T5, Serine/threonine-protein kinase 17B (Homo sapiens, UniProt O94768).
T5 sequence (O94768 whole entry): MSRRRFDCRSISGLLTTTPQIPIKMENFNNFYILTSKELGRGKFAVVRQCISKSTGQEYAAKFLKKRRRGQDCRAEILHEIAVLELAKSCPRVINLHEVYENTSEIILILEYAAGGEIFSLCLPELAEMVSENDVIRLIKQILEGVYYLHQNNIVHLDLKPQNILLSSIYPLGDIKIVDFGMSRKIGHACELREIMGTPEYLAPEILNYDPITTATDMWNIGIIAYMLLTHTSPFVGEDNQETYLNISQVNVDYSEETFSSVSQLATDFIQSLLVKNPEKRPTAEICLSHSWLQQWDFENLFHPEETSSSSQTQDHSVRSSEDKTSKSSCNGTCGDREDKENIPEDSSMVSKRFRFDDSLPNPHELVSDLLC
Kind of data set: Inhibition of DRAK2 (unknown origin) expressed in Escherichia coli incubated for 2 hrs by ADP-Glo assay. Background: ADP-Glo turns the ADP formed in a reaction into a luminescent signal.

For data set [13], the target named is T6, Serine/threonine-protein kinase Chk1 (Homo sapiens) (UniProt O14757).
T6 sequence (whole entry): T1 sequence (O14757 whole entry)
As to conditions: MV4-11, dose 50-200 nM.
Description: Inhibition of CHK1 phosphorylation at S296 residue in human MV4-11 cells at 50 to 200 nM by Western blot analysis

In data set [14] the target is T6, Serine/threonine-protein kinase Chk1 (Homo sapiens). Conditions: MV4-11, dose 50-200 nM. This is another data set of the same source.
Description: Inhibition of CHK1 in human MV4-11 cells assessed as decrease in c-Myc protein expression level at 50 to 200 nM by Western blot analysis

Active and inactive are the calls of the source. The calls are words filed in the database; no cut-off is given here. Some results are limits rather than exact numbers.

Chain of hERG (KCNH2) (Q12809 whole entry): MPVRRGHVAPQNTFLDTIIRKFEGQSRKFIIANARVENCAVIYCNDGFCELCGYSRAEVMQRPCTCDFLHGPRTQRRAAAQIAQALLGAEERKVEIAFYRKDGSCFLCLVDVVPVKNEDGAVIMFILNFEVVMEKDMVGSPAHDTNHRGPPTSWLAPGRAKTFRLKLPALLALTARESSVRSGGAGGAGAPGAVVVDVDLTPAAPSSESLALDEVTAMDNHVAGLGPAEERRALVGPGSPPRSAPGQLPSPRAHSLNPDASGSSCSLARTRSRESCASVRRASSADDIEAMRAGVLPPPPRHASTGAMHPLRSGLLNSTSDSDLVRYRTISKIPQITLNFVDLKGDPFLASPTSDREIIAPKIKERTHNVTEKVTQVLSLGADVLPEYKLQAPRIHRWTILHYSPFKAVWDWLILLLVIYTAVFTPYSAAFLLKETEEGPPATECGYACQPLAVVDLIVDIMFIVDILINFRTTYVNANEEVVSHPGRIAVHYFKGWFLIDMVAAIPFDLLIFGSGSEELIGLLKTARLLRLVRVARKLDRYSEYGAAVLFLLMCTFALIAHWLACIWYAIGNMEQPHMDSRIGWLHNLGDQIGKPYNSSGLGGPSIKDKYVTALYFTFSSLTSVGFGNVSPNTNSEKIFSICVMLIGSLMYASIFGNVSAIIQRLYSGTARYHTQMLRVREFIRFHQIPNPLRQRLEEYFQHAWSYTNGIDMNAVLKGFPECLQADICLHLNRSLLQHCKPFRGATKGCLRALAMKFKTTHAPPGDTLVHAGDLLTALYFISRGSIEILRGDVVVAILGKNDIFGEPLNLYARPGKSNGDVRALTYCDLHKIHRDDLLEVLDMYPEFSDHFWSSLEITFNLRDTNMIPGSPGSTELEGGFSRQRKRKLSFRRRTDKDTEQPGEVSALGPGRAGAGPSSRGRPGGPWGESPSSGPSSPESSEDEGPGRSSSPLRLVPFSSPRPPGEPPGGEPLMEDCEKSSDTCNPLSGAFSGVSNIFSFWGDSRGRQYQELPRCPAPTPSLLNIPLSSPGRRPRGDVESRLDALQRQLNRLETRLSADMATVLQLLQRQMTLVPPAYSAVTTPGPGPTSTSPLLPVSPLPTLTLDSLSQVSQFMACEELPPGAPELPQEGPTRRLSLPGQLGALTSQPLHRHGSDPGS

`CS(=O)(=O)N1Cc2ccc(Nc3ncc(C(F)(F)F)c(NCCCN)n3)cc2C1` came in with an inhibition at 10 µM in data set [1] of 23.2%. For the same compound, the IC50 in [2] is 35.2 nM; in [3], 21300 nM.
On the same counts, the results for `CS(=O)(=O)N1CCCc2cc(Nc3ncc(C(F)(F)F)c(NCCCN)n3)ccc21` are 64.2%, 28.9 nM and 9810 nM.
The compound `NCCCNc1nc(Nc2ccc3c(c2)CCC3=O)ncc1C(F)(F)F` had an IC50 in data set [2] of 144 nM.
The compound `NCCCNc1nc(Nc2ccc3c(c2)COC3=O)ncc1C(F)(F)F` came in with an IC50 in [2] of 93.6 nM.
`NCCCNc1nc(Nc2ccc3c(c2)CCN(S(=O)(=O)c2ccccc2)C3)ncc1C(F)(F)F` yielded an IC50 in data set [2] of 133 nM.
Compound `CS(=O)(=O)N1CCOc2cc(Nc3ncc(C(F)(F)F)c(NCCCN)n3)ccc21` yielded a concentration for half-maximal inhibition (IC50) in data set [2] of 183 nM.
`NCCCNc1nc(Nc2ccc3c(c2)CCCC3=O)ncc1C(F)(F)F` yielded an inhibition at 10 µM in data set [1] of 76.1%. The IC50 in data set [2] was found to be 38.6 nM; in data set [3], 10900 nM.
The compound `CS(=O)(=O)N1CCc2cc(Nc3ncc(C(F)(F)F)c(NCCCN)n3)ccc21` yielded an inhibition at 10 µM in data set [1] of 39.5%. The concentration for half-maximal inhibition (IC50) in [2] is 32.5 nM; in [3], 12300 nM.
In data set [2], `NCCCNc1nc(Nc2ccc3c(c2)CCCN3S(=O)(=O)c2ccccc2)ncc1C(F)(F)F` returned an IC50 of 166 nM.
On to `NCCCNc1nc(Nc2ccc3c(c2)CCS3(=O)=O)ncc1C(F)(F)F`, for which the IC50 in [2] was found to be 104 nM.
In data set [2], `NCCCNc1nc(Nc2ccc3c(c2)CCN(S(=O)(=O)C2CCCCC2)C3)ncc1C(F)(F)F` displayed an IC50 of 100 nM.
For the compound `CC(=O)c1ccc(Nc2ncc(C(F)(F)F)c(NCCCN)n2)cc1`, in data set [2], the IC50 worked out at 89.3 nM.
In data set [1], `CS(=O)(=O)N1CCc2cc(Nc3ncc(C(F)(F)F)c(NCCCN)n3)ccc2C1` showed an inhibition at 10 µM of 36.1%. Moreover, the IC50 in [4] is 865 nM; in [5], 834.85 nM; in data set [6] it was 833 nM; in data set [7], 1860 nM; in [8], more than 10000 nM; in [9], more than 10000 nM. In addition, the IC50 was more than 10000 nM in data set [10]; more than 10000 nM in data set [11]; more than 10000 nM in [12]; 25.6 nM in data set [2]; 10500 nM in data set [3]. Moreover, the inhibition result in data set [13] and in [14] was “Active” throughout.
In the case of `NCCCNc1nc(Nc2ccc3c(c2)OCO3)ncc1C(F)(F)F`, inhibition in data set [2] was half-maximal at 237 nM (IC50).

For orientation: inhibition means the drop in the measured response relative to a control, in per cent. A word on the IC50: it is the midpoint of a concentration-inhibition curve.
